Results as given in ChEMBL document CHEMBL5465560, “Selectivity Literature for EUbOPEN Chemogenomic Library” (2024).

Tests used:
Aurora kinase B = Aurora kinase B (Homo sapiens, UniProt Q96GD4); conditions: at 10 µM
[1] = molecular target: T1, Serine/threonine-protein kinase LATS2 (Homo sapiens) (UniProt Q9NRM7); assay: Selectivity interaction (KinomeScan (DiscoverX)) EUB0000229b LATS2; conditions: at 10 µM
T1 sequence (whole entry): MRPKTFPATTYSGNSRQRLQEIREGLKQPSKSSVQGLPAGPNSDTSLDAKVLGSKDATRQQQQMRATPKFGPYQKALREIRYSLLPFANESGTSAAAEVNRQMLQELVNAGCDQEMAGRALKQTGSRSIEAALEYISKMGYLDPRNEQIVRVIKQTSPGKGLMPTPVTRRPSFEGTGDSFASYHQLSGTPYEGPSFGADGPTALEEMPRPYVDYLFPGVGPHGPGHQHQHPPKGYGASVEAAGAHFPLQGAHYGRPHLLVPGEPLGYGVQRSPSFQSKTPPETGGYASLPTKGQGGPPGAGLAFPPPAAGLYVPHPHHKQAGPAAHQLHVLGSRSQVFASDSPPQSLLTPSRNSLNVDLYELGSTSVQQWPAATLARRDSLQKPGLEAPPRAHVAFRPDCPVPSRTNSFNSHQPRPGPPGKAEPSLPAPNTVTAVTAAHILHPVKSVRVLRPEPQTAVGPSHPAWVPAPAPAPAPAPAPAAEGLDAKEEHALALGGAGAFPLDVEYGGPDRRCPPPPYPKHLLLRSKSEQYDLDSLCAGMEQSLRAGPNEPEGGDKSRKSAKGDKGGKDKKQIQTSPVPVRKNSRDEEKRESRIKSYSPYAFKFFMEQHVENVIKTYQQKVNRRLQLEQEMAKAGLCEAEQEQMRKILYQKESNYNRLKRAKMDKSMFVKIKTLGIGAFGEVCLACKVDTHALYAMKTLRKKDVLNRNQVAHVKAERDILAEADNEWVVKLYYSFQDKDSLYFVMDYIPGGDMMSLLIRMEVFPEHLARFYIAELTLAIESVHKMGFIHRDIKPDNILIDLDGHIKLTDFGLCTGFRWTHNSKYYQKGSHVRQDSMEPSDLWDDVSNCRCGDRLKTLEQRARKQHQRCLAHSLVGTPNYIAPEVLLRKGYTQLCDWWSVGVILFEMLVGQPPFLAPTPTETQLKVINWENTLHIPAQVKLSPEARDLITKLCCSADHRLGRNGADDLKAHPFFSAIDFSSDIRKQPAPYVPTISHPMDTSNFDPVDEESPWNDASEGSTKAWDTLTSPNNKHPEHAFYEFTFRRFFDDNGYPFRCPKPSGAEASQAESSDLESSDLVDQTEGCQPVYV

[2] = molecular target: Interleukin-1 receptor-associated kinase 1 (Homo sapiens) (UniProt P51617); assay: Selectivity interaction (KinomeScan (DiscoverX)) EUB0000655a IRAK1; conditions: at 10 µM
Interleukin-1 receptor-associated kinase 1 (Homo sapiens), sequence (P51617 whole entry, looked up): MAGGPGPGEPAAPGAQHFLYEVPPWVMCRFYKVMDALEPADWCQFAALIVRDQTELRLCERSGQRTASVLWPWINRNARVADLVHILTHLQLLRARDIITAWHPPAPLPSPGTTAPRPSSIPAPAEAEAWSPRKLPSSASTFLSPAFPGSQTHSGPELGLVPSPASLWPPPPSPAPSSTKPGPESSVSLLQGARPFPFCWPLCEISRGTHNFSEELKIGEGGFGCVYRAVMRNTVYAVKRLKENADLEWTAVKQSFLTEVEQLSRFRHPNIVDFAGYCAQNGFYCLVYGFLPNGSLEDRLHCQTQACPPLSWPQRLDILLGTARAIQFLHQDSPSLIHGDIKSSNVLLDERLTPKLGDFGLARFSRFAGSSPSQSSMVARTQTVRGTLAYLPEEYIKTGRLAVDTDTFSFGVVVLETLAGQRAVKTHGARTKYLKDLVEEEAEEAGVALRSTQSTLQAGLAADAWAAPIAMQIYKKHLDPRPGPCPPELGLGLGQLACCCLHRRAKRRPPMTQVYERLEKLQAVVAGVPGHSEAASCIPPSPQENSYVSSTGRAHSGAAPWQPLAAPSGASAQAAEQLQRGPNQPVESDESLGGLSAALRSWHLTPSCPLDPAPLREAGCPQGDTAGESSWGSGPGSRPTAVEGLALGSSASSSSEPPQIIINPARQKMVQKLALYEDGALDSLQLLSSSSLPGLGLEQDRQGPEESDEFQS

[3] = molecular target: T2, Scaffold protein ILK (Homo sapiens) (UniProt Q13418); assay: Selectivity interaction (Kinase panel (KiNativ target engagement assay in Jurkat cells)) EUB0001635a ILK; format: cell-based; conditions: Selectivity number of off-targets 0.0, Selectivity number of targets 233.0, Source Knowledge https://www.sciencedirect.com/science/article/pii/S2451945619300674?via%3Dihub, at 1 µM
T2 sequence (whole entry): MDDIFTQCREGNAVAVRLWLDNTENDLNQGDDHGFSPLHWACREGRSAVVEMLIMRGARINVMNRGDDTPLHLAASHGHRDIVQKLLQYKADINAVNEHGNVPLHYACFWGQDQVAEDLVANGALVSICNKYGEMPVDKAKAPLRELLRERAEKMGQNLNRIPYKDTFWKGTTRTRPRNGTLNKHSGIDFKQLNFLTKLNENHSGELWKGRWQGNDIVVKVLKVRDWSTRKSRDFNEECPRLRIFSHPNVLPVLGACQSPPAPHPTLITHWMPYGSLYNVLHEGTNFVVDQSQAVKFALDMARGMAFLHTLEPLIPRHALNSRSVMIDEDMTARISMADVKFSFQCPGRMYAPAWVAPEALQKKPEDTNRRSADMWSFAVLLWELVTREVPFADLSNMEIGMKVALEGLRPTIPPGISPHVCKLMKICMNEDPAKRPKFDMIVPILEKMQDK

[4] = molecular target: T3, Serine/threonine-protein kinase TAO3 (Homo sapiens) (UniProt Q9H2K8); assay: Selectivity interaction (KinomeScan (DiscoverX)) EUB0000666a TAOK3; conditions: at 10 µM
T3 sequence (whole entry): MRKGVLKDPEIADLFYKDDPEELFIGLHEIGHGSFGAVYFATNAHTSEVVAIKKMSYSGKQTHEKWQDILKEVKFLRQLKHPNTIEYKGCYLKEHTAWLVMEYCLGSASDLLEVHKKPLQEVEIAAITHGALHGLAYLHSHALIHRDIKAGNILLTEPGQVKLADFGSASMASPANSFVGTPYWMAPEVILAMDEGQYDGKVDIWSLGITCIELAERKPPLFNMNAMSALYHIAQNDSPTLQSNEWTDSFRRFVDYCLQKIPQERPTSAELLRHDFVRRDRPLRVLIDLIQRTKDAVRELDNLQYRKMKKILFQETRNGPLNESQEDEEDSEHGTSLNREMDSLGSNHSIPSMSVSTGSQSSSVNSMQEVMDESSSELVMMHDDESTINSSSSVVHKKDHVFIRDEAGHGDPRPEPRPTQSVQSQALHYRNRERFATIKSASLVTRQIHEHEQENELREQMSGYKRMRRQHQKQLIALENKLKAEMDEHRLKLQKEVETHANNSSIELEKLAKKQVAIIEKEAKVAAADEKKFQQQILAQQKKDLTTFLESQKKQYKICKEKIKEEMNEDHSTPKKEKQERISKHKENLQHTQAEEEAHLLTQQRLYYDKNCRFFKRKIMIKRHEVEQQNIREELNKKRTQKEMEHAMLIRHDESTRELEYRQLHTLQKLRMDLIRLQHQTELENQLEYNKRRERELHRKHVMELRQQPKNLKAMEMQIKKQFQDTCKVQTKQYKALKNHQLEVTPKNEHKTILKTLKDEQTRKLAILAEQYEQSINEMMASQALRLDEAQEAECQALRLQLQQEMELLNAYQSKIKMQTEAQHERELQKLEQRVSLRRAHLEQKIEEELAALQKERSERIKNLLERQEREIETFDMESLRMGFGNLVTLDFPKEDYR

[5] = molecular target: Tyrosine-protein kinase Fes/Fps (Homo sapiens) (UniProt P07332); conditions: at 10 µM
Tyrosine-protein kinase Fes/Fps (Homo sapiens), sequence (P07332 whole entry): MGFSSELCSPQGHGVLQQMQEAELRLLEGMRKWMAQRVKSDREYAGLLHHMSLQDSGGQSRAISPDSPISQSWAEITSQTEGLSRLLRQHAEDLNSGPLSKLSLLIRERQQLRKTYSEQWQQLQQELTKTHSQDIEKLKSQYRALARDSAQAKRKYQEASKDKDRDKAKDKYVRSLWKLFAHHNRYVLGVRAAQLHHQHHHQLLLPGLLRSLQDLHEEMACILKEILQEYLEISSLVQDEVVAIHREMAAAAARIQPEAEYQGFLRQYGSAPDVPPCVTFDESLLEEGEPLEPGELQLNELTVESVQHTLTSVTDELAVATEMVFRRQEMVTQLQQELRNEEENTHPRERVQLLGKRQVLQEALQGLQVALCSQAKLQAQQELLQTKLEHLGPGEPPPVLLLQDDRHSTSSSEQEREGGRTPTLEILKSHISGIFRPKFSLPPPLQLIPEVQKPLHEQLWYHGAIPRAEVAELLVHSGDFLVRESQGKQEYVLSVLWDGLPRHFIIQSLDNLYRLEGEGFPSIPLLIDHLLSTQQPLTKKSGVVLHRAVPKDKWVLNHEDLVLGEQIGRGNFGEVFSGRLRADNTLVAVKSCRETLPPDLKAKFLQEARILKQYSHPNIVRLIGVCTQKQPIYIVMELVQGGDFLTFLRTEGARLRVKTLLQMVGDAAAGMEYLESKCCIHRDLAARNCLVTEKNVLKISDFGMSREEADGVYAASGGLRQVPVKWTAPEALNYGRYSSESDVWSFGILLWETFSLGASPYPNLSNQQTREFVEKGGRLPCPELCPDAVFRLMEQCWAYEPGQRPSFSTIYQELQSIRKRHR

[6] = molecular target: Receptor-interacting serine/threonine-protein kinase 2 (Homo sapiens, UniProt O43353); assay: Selectivity interaction (KinomeScan (DiscoverX)) EUB0000695a RIPK2; conditions: at 100 nM
Receptor-interacting serine/threonine-protein kinase 2, sequence (O43353 whole entry): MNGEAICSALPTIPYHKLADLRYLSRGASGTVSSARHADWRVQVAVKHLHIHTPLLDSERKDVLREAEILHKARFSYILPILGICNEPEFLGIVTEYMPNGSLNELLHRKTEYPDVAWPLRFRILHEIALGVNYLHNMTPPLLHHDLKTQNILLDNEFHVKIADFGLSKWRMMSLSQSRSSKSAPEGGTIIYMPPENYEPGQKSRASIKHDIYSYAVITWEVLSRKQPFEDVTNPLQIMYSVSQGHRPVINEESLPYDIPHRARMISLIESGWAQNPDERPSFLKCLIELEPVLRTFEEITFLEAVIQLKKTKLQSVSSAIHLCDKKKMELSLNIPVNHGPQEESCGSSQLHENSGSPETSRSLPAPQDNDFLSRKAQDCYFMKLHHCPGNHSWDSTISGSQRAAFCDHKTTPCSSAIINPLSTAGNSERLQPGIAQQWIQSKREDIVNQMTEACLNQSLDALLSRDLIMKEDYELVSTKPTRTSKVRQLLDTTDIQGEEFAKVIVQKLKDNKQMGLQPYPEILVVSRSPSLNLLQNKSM

[7] = molecular target: Tyrosine-protein kinase HCK (Homo sapiens) (UniProt P08631); assay: Selectivity interaction (Ambit KINOMEscan and KiNATiv profiling in Jurkat cells) EUB0000090b HCK; format: cell-based; conditions: at 1 µM
Tyrosine-protein kinase HCK (Homo sapiens), sequence (P08631 2-526 limits assumed): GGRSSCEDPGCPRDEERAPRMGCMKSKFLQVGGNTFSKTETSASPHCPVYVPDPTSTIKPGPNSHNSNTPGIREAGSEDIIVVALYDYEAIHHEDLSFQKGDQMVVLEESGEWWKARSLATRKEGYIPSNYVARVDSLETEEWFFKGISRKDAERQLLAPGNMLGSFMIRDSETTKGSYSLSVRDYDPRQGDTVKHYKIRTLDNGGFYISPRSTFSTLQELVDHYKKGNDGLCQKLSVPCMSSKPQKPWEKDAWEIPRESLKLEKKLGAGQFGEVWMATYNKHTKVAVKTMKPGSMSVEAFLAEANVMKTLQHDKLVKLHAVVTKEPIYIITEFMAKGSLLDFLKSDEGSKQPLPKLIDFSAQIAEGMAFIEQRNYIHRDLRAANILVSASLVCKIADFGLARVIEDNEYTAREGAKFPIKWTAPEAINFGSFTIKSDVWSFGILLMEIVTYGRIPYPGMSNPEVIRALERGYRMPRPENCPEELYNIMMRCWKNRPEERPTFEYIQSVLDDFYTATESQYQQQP

Aurora kinase B, sequence (Q96GD4 whole entry): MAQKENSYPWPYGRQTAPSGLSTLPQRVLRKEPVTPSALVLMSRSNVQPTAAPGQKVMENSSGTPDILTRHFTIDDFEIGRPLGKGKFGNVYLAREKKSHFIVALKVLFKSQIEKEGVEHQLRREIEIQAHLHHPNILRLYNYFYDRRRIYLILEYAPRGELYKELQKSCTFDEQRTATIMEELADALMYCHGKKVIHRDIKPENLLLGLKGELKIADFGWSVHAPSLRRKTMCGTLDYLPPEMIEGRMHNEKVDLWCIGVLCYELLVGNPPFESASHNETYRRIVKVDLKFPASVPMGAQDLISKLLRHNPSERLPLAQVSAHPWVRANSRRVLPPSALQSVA

CCN(CC)CCCCNc1ncc2cc(-c3cc(OC)cc(OC)c3)c(NC(=O)NC(C)(C)C)nc2n1
% of control (Aurora kinase B): 100%

COc1cc(N(C)c2ccnc3ccc(C(F)(F)F)cc23)cc(OC)c1OC
% binding [1]: 89%

CN(C)CCOc1ccc(-c2nc(-c3ccncc3)c(-c3ccc4c(c3)CC/C4=N\O)[nH]2)cc1
% of control [2]: 16%

C=CC(=O)Nc1ccc(C(=O)Nc2[nH]nc3c2CN(C(=O)N[C@H](CN(C)C)c2ccccc2)C3(C)C)cc1
% of engagement [3]: -20.3%

O=C(NOC[C@H](O)CO)c1ccc(F)c(F)c1Nc1ccc(I)cc1F
% of control [4]: 89%

Cc1cc([C@@H](C)Nc2ccccc2C(=O)O)c2nc(N3CCOCC3)cc(=O)n2c1 [AZD-6482]
% of control [5]: 94%

Cc1cc(F)c(C(=O)Nc2cccc(-c3nncn3C(C)C)n2)cc1-n1cnc(C2CC2)c1
% of control [6]: 100%

CN(C)C/C=C/C(=O)Nc1ccc(C(=O)N2CCCC(Nc3ncc(Cl)c(-c4c[nH]c5ccccc45)n3)C2)cc1 (stereo not drawn)
% of control [7]: 83%
